Data as given in patent publication US8278319B2, “Substituted spiroamine compounds” (Gruenenthal GmbH, priority 2008, dated 2012).

What was measured:
human B1R = molecular target: T1, human B1R (Homo sapiens, UniProt P46663); assay: Functional investigation on the bradykinin receptor 1 (B1R), FLIPR Ca2+ assay, hB1R cells; type: cell-based; details: % inhibition human B1R at 10 μM; CHO K1 cells transfected with human B1R; agonist Lys-Des-Arg9 bradykinin at EC80; read-out: % Inh. (hum. B1R) 10 μM
T1 construct: expressed in transfected cells; host or cells: CHO K1 cells
T1 sequence (P46663 1-353): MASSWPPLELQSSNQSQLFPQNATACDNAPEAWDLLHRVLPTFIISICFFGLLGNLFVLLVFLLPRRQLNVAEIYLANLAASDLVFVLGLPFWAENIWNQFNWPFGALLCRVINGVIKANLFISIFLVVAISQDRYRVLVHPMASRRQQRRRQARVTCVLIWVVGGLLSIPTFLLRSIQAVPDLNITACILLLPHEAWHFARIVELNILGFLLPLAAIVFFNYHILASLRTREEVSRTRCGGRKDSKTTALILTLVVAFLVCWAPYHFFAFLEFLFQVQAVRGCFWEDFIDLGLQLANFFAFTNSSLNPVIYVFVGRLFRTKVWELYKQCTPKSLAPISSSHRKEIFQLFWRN
Protocol: (§1) The agonistic or antagonistic action of substances can be quantified on the bradykinin receptor 1 (B1R) of the human and rat species with ectopically expressing cell lines (CHO K1 cells) and with the aid of a Ca^2+-sensitive dye (Fluo-4) using a fluorescent imaging plate reader (FLIPR). The indication in % activation is based on the Ca^2+ signal after addition of Lys-Des-Arg^9 bradykinin (0.5 nM) or Des-Arg^9 bradykinin (100 nM). Antagonists lead to a suppression of the Ca^2+ influx following administration of the agonist. The % inhibition in comparison with the maximum achievable inhibition is indicated.
(§2) The agonistic or antagonistic action of substances can be determined on the bradykinin 1 receptor (B1R) of the human and rat species with the following assay. According to this assay, the Ca^2+ inflow through the channel is quantified with the aid of a Ca^2+-sensitive dye (Fluo-4 type, Molecular Probes Europe BV, Leiden, The Netherlands) in a fluorescent imaging plate reader (FLIPR, Molecular Devices, Sunnyvale, USA).
(§3) Chinese hamster ovary cells (CHO K1 cells) which are stably transfected with the human B1R gene (hB1R cells) or the B1R gene of the rat (rB1R cells) are used. For functional investigations, these cells are plated-out onto black 96-well plates with a clear base (BD Biosciences, Heidelberg, Germany or Greiner, Frickenhausen, Germany) in a density of 20,000-35,000 cells/well. Overnight, the cells are incubated at 37° C. and 5% CO2 in culture medium (hB1R cells: Nutrient Mixture Ham's F12, Gibco Invitrogen GmbH, Karlsruhe, Germany or DMEM, Sigma-Aldrich, Taufkirchen, Germany; rB1R cells: D-MEM/F12, Gibco Invitrogen, Karlsruhe, Germany) with 10 vol. % FBS (foetal bovine serum, Gibco Invitrogen GmbH, Karlsruhe, Germany or PAN Biotech GmbH, Aidenbach, Germany). On the following day the cells are loaded with 2.13 μM Fluo-4 (Molecular Probes Europe BV, Leiden, The Netherlands) in HBSS buffer (Hank's buffered saline solution, Gibco Invitrogen GmbH, Karlsruhe, Germany) with 2.5 mM probenecid (Sigma-Aldrich, Taufkirchen, Germany) and 10 mM HEPES (Sigma-Aldrich, Taufkirchen, Germany) for 60 min at 37° C. The plates are the washed twice with HBSS buffer, and HBSS buffer which additionally contains 0.1% BSA (bovine serum albumin; Sigma-Aldrich, Taufkirchen, Germany), 5.6 mM glucose and 0.05% gelatine (Merck KGaA, Darmstadt, Germany) is added. After a further incubation of 20 minutes at room temperature, the plates are inserted into the FLIPR for Ca^2+ measurement. Alternatively they are washed with buffer A (15 mM HEPES, 80 mM NaCl, 5 mM KCl, 1.2 mM CaCl2, 0.7 mM MgSO4, 2 g/l glucose, 2.5 mM probenecid) and loaded with buffer A with added 2.5 μM Fluo-4 and 0.025% Pluronic F127 (Sigma-Aldrich, Taufkirchen, Germany). The cells are then washed twice with buffer A and incubated for 30 minutes with buffer A, which additionally contains 0.05% BSA and 0.05% gelatine, at room temperature and then used for Ca^2+ measurement in the FLIPR.
(§4) The Ca^2+-dependent fluorescence is measured here before and after addition of substances (λex=488 nm, λem=540 nm). The quantification is performed by measuring the highest fluorescence intensity (FC, fluorescence counts) over time.
(§5) The FLIPR protocol comprises two additions of substance. Test substances (10 μM) are first pipetted onto the cells and the Ca^2+ inflow is compared with the control (hB1R: Lys-Des-Arg^9 bradykinin>=50 nM; rB1R: Des-Arg^9 bradykinin 10 μM). The value in % activation based on the Ca^2+ signal after addition of Lys-Des-Arg^9 bradykinin (>=50 nM) or Des-Arg^9 bradykinin (10 μM) is obtained therefrom. After incubation for 10-20 minutes, Lys-Des-Arg^9 bradykinin (hB1R) or Des-Arg^9 bradykinin (rB1R) is applied in the EC80 concentration and the inflow of Ca^2+ is likewise determined. Antagonists lead to a suppression of the Ca^2+ inflow. The % inhibition in comparison with the maximum achievable inhibition is calculated. […]

rat B1R = molecular target: T2, rat B1R (Rattus norvegicus, UniProt P97583); assay: Functional investigation on the bradykinin receptor 1 (B1R), FLIPR Ca2+ assay, rB1R cells; type: cell-based; details: % inhibition rat B1R at 10 μM; CHO K1 cells transfected with rat B1R; agonist Des-Arg9 bradykinin at EC80; read-out: % Inh. (rat B1R) 10 μM
T2 construct: expressed in transfected cells; host or cells: CHO K1 cells
T2 sequence (P97583 1-337): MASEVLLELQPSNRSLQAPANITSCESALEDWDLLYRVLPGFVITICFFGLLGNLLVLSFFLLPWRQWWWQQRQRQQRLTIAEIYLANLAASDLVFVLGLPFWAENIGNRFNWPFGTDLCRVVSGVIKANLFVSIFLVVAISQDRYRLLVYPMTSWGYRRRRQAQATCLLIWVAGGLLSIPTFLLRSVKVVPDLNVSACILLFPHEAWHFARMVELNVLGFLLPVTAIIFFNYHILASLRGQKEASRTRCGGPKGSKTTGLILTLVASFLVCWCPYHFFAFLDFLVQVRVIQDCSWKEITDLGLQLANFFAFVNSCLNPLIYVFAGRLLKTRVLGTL
Protocol: as §1, §2, §3, §4, §5

| Compound | inhibition at 10 µM (human B1R) [%] | inhibition at 10 µM (rat B1R) [%] |
| --- | --- | --- |
| COc1cc(C)c(S(=O)(=O)N2C=CNC(=O)[C@H]2CC(=O)N2CCC3(CC2)CCC(c2ccccc2)(N(C)C)CC3)c(C)c1 [Compound 10, (3R)-3-(2-(9-(Dimethylamino)-9-phenyl-3-azaspiro[5.5]undecan-3-yl)-2-oxoethyl)-4-(4-methoxy-2,6-dimethylphenylsulfonyl)-3,4-dihydropyrazin-2(1H)-one] | 100 | 92 |
| COc1cc(C)c(S(=O)(=O)N2CCCC[C@H]2COCC(=O)N2CCC3(CC2)CCC(c2cccc(F)c2)(N(C)C)CC3)c(C)c1 [Compound 11, 1-(9-(Dimethylamino)-9-(3-fluorophenyl)-3-azaspiro[5.5]undecan-3-yl)-2-(((S)-1-(4-methoxy-2,6-dimethylphenylsulfonyl)piperidin-2-yl)methoxy)ethanone] | 100 | 104 |
| COc1cc(C)c(S(=O)(=O)N2CCCC[C@H]2COCC(=O)N2CCC3(CC2)CCC(c2ccccc2)(N2CCC2)CC3)c(C)c1 [Compound 12, 1-(9-(Azetidin-1-yl)-9-phenyl-3-azaspiro[5.5]undecan-3-yl)-2-(((S)-1-(4-methoxy-2,6-dimethylphenylsulfonyl)piperidin-2-yl)methoxy)ethanone] | 100 | 102 |
| COc1cc(C)c(S(=O)(=O)N2CCCC[C@H]2COCC(=O)N2CCC3(CC2)CCC(c2ccccc2)(N2CC(F)(F)C2)CC3)c(C)c1 [Compound 13, 1-(9-(3,3-Difluoroazetidin-1-yl)-9-phenyl-3-azaspiro[5.5]undecan-3-yl)-2-(((S)-1-(4-methoxy-2,6-dimethylphenylsulfonyl)piperidin-2-yl)methoxy)ethanone] | 86 | 104 |
